Patent publication US9789110B2, “Diacylglycerol acyltransferase 2 inhibitors” (PFIZER INC., priority 2014, dated 2017)

target: hDGAT2 (Homo sapiens (Human), UniProt Q96PD7); assay: In vitro DGAT2 assay, hDGAT2 membrane fraction, [14C]decanoyl-CoA scintillation readout; assay type: biochemical; conditions: geometric mean; FLAG-hDGAT2 membrane fraction; 2 h preincubation; read-out: IC50 for inhibition of DGAT2
Description: Recombinant baculovirus for the FLAG-tagged hDGAT2 was generated in SF9 insect cells using Bac-to-Bac baculovirus expression system (Invitrogen) according to the manufacturer's protocol. For the expression of hDGAT2, SF9 cells (20 L) grown in Sf90011 media were infected with hDGAT2 baculovirus at a multiplicity of infection of 1 in a Wave Bioreactor System 20/50P wave bag (GE Healthcare). After 40 hours of infection, the cells were then harvested by centrifugation at 5,000×g. The cell pellets were washed by resuspending in phosphate buffered saline (PBS) and collected by centrifugation at 5,000×g. The cell paste was flash frozen in liquid N2 and stored at −80° C. until needed. All operations below were at 4° C. unless otherwise noted. The cells were resuspended in lysis buffer (50 mM Tris-HCl, pH 8.0, 250 mM sucrose) including 1 mM ethylenediaminetetraacetic acid (EDTA) and the complete protease inhibitor cocktail (Roche Diagnostics) at a ratio of 3 ml buffer per 1 g cell paste. The cells were lysed by dounce homogenizer. The cell debris was removed by centrifugation at 1,000×g for 20 min, and the supernatant was centrifuged at 100,000×g for 1 hour. The resulting pellet was rinsed three times by filling ultracentrifuge tubes to the top with ice cold PBS before decanting. The washed pellet was resuspended with gentle stirring for 1 hour in lysis buffer containing 8 mM 3-[(3-cholamidopropyl)dimethylammonio]-1-propanesulfonate (CHAPS) at a ratio of 1 mL buffer per 1 g of original cell paste and centrifuged again at 100,000×g for 1 hour. The resulting supernatant was aliquotted, flash frozen in liquid N2, and stored at −80° C. until use.
For determination of IC50 values, the reactions were carried out in 384-well white Polyplates (Perkin Elmer) in a total volume of 20 μL. To […] compounds dissolved in 100% DMSO and spotted at the bottom of each well, 5 μL of 0.04% bovine serum albumin (BSA) (fatty acid free, Sigma Aldrich) was added and the mixture was incubated at room temperature for 20 minutes. To this mixture, 10 μL of hDGAT2 membrane fraction (0.01 mg/mL) diluted in 100 mM Hepes-NaOH, pH 7.4, 20 mM MgCl2 containing 200 nM methyl arachidonyl fluorophosphonate (Cayman Chemical; dried from ethyl acetate stock solution under argon gas and dissolved in DMSO as 5 mM stock) was added. After this mixture was preincubated at room temperature for 2 hours, DGAT2 reactions were initiated by the addition of 4 μL of substrates containing 30 μM [1-^14C]decanoyl-CoA (custom-synthesized by Perkin Elmer, 50 mCi/mmol) and 125 μM 1,2-didecanoyl-sn-glycerol (Avanti Polar Lipids) dissolved in 12.5% acetone. The reaction mixtures were incubated at room temperature for 40 min and the reactions were stopped by addition of 5 μL of 1% H3PO4. After the addition of 45 μL MicroScint-E (Perkin-Elmer), plates were sealed with Top Seal-A covers (Perkin-Elmer) and phase partitioning of substrates and products was achieved using a HT-91100 microplate orbital shaker (Big Bear Automation, Santa Clara, Calif.). Plates were centrifuged at 2,000×g for 1 min in an Allegra 6R Centrifuge (Beckman Coulter) and then were sealed again with fresh covers before reading in a 1450 Microbeta Wallac Trilux Scintillation Counter (Perkin Elmer). DGAT2 activity was measured by quantifying the generated product [^14C]tridecanoylglycerol in the upper organic phase.
Inhibitors were tested at eleven different concentrations to generate IC50 values for each compound.

Chain of hDGAT2 (Q96PD7 whole entry): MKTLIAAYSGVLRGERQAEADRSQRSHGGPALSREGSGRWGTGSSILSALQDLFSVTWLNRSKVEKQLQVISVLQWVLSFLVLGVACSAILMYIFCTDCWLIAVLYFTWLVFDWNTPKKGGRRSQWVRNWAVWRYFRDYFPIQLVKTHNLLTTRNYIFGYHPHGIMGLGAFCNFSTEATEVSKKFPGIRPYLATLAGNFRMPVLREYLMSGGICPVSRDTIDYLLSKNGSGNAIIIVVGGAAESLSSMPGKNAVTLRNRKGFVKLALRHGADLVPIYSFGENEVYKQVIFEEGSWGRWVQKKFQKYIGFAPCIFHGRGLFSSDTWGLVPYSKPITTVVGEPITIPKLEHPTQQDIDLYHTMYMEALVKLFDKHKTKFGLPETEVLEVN

IC50	Compound
14.3 nM	CCOc1ccccc1O[C@@H]1CCCN(c2ncc(C(=O)N3CC(OC)C3)cn2)C1 [Example 19.9, (R)-(2-(3-(2-ethoxyphenoxy)piperidin-1-yl)pyrimidin-5-yl)(3-methoxyazetidin-1-yl)methanone]
24.5 nM	CCOc1ccccc1O[C@@H]1CCCN(c2ncc(C(=O)N3CCCC3)cn2)C1 [Example 20.9, (R)-(2-(3-(2-ethoxyphenoxy)piperidin-1-yl)pyrimidin-5-yl)(pyrrolidin-1-yl)methanone]
7.9 nM	CCOc1ccccc1O[C@@H]1CCCN(c2ncc(C(=O)N3CC(F)(F)C3)cn2)C1 [Example 20.7, (R)-(3,3-difluoroazetidin-1-yl)(2-(3-(2-ethoxyphenoxy)piperidin-1-yl)pyrimidin-5-yl)methanone]
104 nM	CCOc1ccccc1O[C@@H]1CCCN(c2ncc(C(=O)N(C)C)cn2)C1 [Example 20.3, (R)-2-(3-(2-ethoxyphenoxy)piperidin-1-yl)-N,N-dimethylpyrimidine-5-carboxamide]
76.6 nM	CCOc1ccccc1O[C@@H]1CCCN(c2ncc(C(=O)NCc3cccc(C(=O)O)c3OC)cn2)C1 [Example 14, (R)-3-((2-(3-(2-ethoxyphenoxy)piperidin-1-yl)pyrimidine-5-carboxamido)methyl)-2-methoxybenzoic acid]
10.8 nM	CCOc1ccccc1O[C@@H]1CCCN(c2ncc(C(=O)NCc3ccon3)cn2)C1 [Example 19.3, (R)-2-(3-(2-ethoxyphenoxy)piperidin-1-yl)-N-(isoxazol-3-ylmethyl)pyrimidine-5-carboxamide]
124 nM	CCOc1ccccc1O[C@@H]1CCCN(c2ncc(C(=O)NCC(=N)N)cn2)C1 [Example 19.5, (R)-N-(2-amino-2-iminoethyl)-2-(3-(2-ethoxyphenoxy)piperidin-1-yl)pyrimidine-5-carboxamide]
149 nM	CCOc1ccccc1O[C@@H]1CCCN(c2ncc(C(=O)NCCC(N)=O)cn2)C1 [Example 20.1, (R)-N-(3-amino-3-oxopropyl)-2-(3-(2-ethoxyphenoxy)piperidin-1-yl)pyrimidine-5-carboxamide]
22.6 nM	CCOc1ccccc1O[C@@H]1CCCN(c2ncc(C(=O)N3CCOCC3)cn2)C1 [Example 19.1, (R)-(2-(3-(2-ethoxyphenoxy)piperidin-1-yl)pyrimidin-5-yl)(morpholino)methanone]
10.7 nM	CCOc1ccccc1O[C@@H]1CCCN(c2ncc(C(=O)NC3CCC3)cn2)C1 [Example 19.22, (R)-N-cyclobutyl-2-(3-(2-ethoxyphenoxy)piperidin-1-yl)pyrimidine-5-carboxamide]
144 nM	CCOc1ccccc1O[C@@H]1CCCN(c2ncc(C(=O)NCC(=O)NC)cn2)C1 [Example 20.6, (R)-2-(3-(2-ethoxyphenoxy)piperidin-1-yl)-N-(2-(methylamino)-2-oxoethyl)pyrimidine-5-carboxamide]
4.3 nM	CCOc1ccccc1O[C@@H]1CCCN(c2ncc(C(=O)NCc3ccccc3)cn2)C1 [Example 19.7, (R)-N-benzyl-2-(3-(2-ethoxyphenoxy)piperidin-1-yl)pyrimidine-5-carboxamide]
22.5 nM	CCOc1ccccc1O[C@@H]1CCCN(c2ncc(C(=O)NCc3cnccn3)cn2)C1 [Example 19.18, (R)-2-(3-(2-ethoxyphenoxy)piperidin-1-yl)-N-(pyrazin-2-ylmethyl)pyrimidine-5-carboxamide]
1.4 nM	CCOc1ccccc1O[C@@H]1CCCN(c2ncc(C(=O)N3Cc4ccccc4C3)cn2)C1 [Example 19.12, (R)-(2-(3-(2-ethoxyphenoxy)piperidin-1-yl)pyrimidin-5-yl)(isoindolin-2-yl)methanone]
102 nM	CCOc1ccccc1O[C@@H]1CCCN(c2ncc(C(=O)NCCS(C)(=O)=O)cn2)C1 [Example 19.8, (R)-2-(3-(2-ethoxyphenoxy)piperidin-1-yl)-N-(2-(methylsulfonyl)ethyl) pyrimidine-5-carboxamide]
53.3 nM	CCOc1ccccc1O[C@@H]1CCCN(c2ncc(C(=O)NCCC(=O)NC)cn2)C1 [Example 20.4, (R)-2-(3-(2-ethoxyphenoxy)piperidin-1-yl)-N-(3-(methylamino)-3-oxopropyl)pyrimidine-5-carboxamide]
33.3 nM	CCOc1ccccc1O[C@@H]1CCCN(c2ncc(C(=O)Nc3cncnc3)cn2)C1 [Example 19.20, (R)-2-(3-(2-ethoxyphenoxy)piperidin-1-yl)-N-(pyrimidin-5-yl)pyrimidine-5-carboxamide]
1.5 nM	CCOc1ccccc1O[C@@H]1CCCN(c2ncc(C(=O)N[C@H]3CCc4ccccc43)cn2)C1 [Example 21.1, N-((S)-2,3-dihydro-1H-inden-1-yl)-2-((R)-3-(2-ethoxyphenoxy)piperidin-1-yl)pyrimidine-5-carboxamide]
11.2 nM	CCOc1ccccc1O[C@@H]1CCCN(c2ncc(C(=O)NCc3cocn3)cn2)C1 [Example 19.15, (R)-2-(3-(2-ethoxyphenoxy)piperidin-1-yl)-N-(oxazol-4-ylmethyl)pyrimidine-5-carboxamide]
34.9 nM	CCOc1ccccc1O[C@@H]1CCCN(c2ncc(C(=O)N3Cc4cnn(C)c4C3)cn2)C1 [Example 19.6, (R)-(2-(3-(2-ethoxyphenoxy)piperidin-1-yl)pyrimidin-5-yl)(1-methyl-4,6-dihydropyrrolo[3,4-c]pyrazol-5(1H)-yl)methanone]
18.6 nM	CCOc1ccccc1O[C@@H]1CCCN(c2ncc(C(=O)NCC3CC3)cn2)C1 [Example 19.4, (R)-N-(cyclopropylmethyl)-2-(3-(2-ethoxyphenoxy)piperidin-1-yl)pyrimidine-5-carboxamide]
12.2 nM	CCOc1ccccc1O[C@@H]1CCCN(c2ncc(C(=O)NC(C)(C)CC(N)=O)cn2)C1 [Example 19.17, (R)-N-(4-amino-2-methyl-4-oxobutan-2-yl)-2-(3-(2-ethoxyphenoxy)piperidin-1-yl)pyrimidine-5-carboxamide]
431 nM	CCOc1ccccc1O[C@@H]1CCCN(c2ncc(C(=O)NCCCc3nn[nH]n3)cn2)C1 [Example 20.2, (R)-N-(3-(2H-tetrazol-5-yl)propyl)-2-(3-(2-ethoxyphenoxy)piperidin-1-yl)pyrimidine-5-carboxamide]
0.6 nM	CCOc1ccccc1O[C@@H]1CCCN(c2ncc(C(=O)N3CC(Oc4ccccc4)C3)cn2)C1 [Example 21.2, (R)-(2-(3-(2-ethoxyphenoxy)piperidin-1-yl)pyrimidin-5-yl)(3-phenoxyazetidin-1-yl)methanone]
11.1 nM	CCOc1ccccc1O[C@@H]1CCCN(c2ncc(C(=O)Nc3ccon3)cn2)C1 [Example 19.19, (R)-2-(3-(2-ethoxyphenoxy)piperidin-1-yl)-N-(isoxazol-3-yl)pyrimidine-5-carboxamide]
32.4 nM	CCOc1ccccc1O[C@@H]1CCCN(c2ncc(C(=O)NCCn3cncn3)cn2)C1 [Example 19.10, (R)-N-(2-(1H-1,2,4-triazol-1-yl)ethyl)-2-(3-(2-ethoxyphenoxy)piperidin-1-yl)pyrimidine-5-carboxamide]
46.7 nM	CCOc1ccccc1O[C@@H]1CCCN(c2ncc(C(=O)N[C@H]3CNC(=O)C3)cn2)C1 [Example 19.13, 2-((R)-3-(2-ethoxyphenoxy)piperidin-1-yl)-N-((R)-5-oxopyrrolidin-3-yl)pyrimidine-5-carboxamide]

Compound	IC50
CCOc1ccccc1O[C@@H]1CCCN(c2ncc(C(=O)N3CCC3)cn2)C1 [Example 19.11, (R)-azetidin-1-yl(2-(3-(2-ethoxyphenoxy)piperidin-1-yl)pyrimidin-5-yl)methanone]	26.7 nM

same assay, conditions: read-out: IC50 for inhibition of DGAT2

Compound	IC50
CCOc1ccccc1O[C@@H]1CCCN(c2ncc(C(=O)N3CCCCC3)cn2)C1 [Example 20.11, (R)-(2-(3-(2-ethoxyphenoxy)piperidin-1-yl)pyrimidin-5-yl)(piperidin-1-yl)methanone]	15.7 nM
